PubChem BioAssay (NCI)
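96-well plates; 48 h exposure; 5 concentrations. Endpoints by linear interpolation between flanking doses. Not reached: highest tested concentration assigned. GI50 = concentration required for 50% inhibition of growth. Definition used: TGI = concentration required for complete inhibition of growth.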

Key:
Assay in all cases: growth of human tumour cells (NCI), 48 h
RXF 393 renal = test system: RXF 393 renal
SF-539 CNS = test system: SF-539 CNS
OVCAR-8 ovarian = test system: OVCAR-8 ovarian
OVCAR-5 ovarian = test system: OVCAR-5 ovarian
NCI-H226 lung = test system: NCI-H226 lung
SNB-19 CNS = test system: SNB-19 CNS
HT29 colon = test system: HT29 colon
MALME-3M melanoma = test system: MALME-3M melanoma
SNB-75 CNS = test system: SNB-75 CNS
NCI-H522 lung = test system: NCI-H522 lung

Row | Structure (SMILES) | GI50 (RXF 393 renal) | TGI (RXF 393 renal) | GI50 (SF-539 CNS) | TGI (SF-539 CNS) | GI50 (OVCAR-8 ovarian) | TGI (OVCAR-8 ovarian) | GI50 (OVCAR-5 ovarian) | TGI (OVCAR-5 ovarian) | GI50 (NCI-H226 lung) | TGI (NCI-H226 lung) | GI50 (SNB-19 CNS) | TGI (SNB-19 CNS) | GI50 (HT29 colon) | TGI (HT29 colon) | GI50 (MALME-3M melanoma) | TGI (MALME-3M melanoma) | GI50 (SNB-75 CNS) | TGI (SNB-75 CNS) | GI50 (NCI-H522 lung) | TGI (NCI-H522 lung)
1 | COc1cc(-c2nn(-c3cccc(NC(=O)CCN4CCN(Cc5ccccc5)CC4)c3)cc2-c2ccncc2)ccc1Cl | 0.705 µM | 2.28 µM | 1.14 µM | 2.58 µM | 2.68 µM | 11.1 µM | 3.02 µM | > 100 µM | 2.91 µM | 47.7 µM | 4.42 µM | 41.2 µM | 0.314 µM | 1.55 µM | 1.01 µM | 2.55 µM | 1.55 µM | 8.73 µM | 0.359 µM | 1.75 µM
2 | C=CCc1cc(Nc2c3ccc(Cl)cc3nc3ccc(OC)cc23)cc(CN(CC)CC)c1O | 1.23 µM | 4.66 µM | 2.45 µM | 9.16 µM | 1.44 µM | – | 6.75 µM | 26 µM | 1.15 µM | 10.8 µM | 2.03 µM | 21.2 µM | 1.75 µM | 10.1 µM | 1.87 µM | 6.78 µM | 3.85 µM | 19.3 µM | 1.77 µM | 5.96 µM
3 | COc1ccc(Nc2ccnc(N3CCN(c4ccnc5cc(Cl)ccc45)CC3)n2)cc1 | 1.31 µM | 6.6 µM | 0.968 µM | 3.26 µM | 1.68 µM | > 21.7 µM | 2.15 µM | > 100 µM | 1.41 µM | 6.09 µM | 1.48 µM | > 100 µM | 0.542 µM | 4.92 µM | 1.11 µM | 4.65 µM | 1.4 µM | 4.82 µM | 0.321 µM | 1.75 µM
4 | C[C@@H]1Cc2cc(O)ccc2[C@H]2CC[C@]3(C)/C(=C/COCCN(C)C)CC[C@H]3[C@H]12 (tested in a mixture with another compound) | 0.105 µM | 0.316 µM | 0.176 µM | 0.339 µM | 0.18 µM | 0.364 µM | 0.251 µM | 0.724 µM | 0.744 µM | 1.97 µM | 0.364 µM | 1.34 µM | 0.368 µM | 1.2 µM | 0.324 µM | 0.865 µM | 0.235 µM | 0.755 µM | 0.131 µM | 0.735 µM
5 | N/C(=N\OC(=O)c1ccccc1)C(Cc1ccccc1)C(=O)NOC(=O)c1ccccc1 (centres undefined) | 1.97 µM | 5.6 µM | 1.84 µM | 3.99 µM | 2.11 µM | 6.53 µM | 9.1 µM | 24.3 µM | 3.51 µM | 14 µM | 3.55 µM | 15.6 µM | 5.24 µM | 18.5 µM | 3.47 µM | 14.8 µM | 1.62 µM | 3.41 µM | 1.7 µM | 3.47 µM
6 | O=C1C(OCCOc2ccccc2)=C(OCCOc2ccccc2)C(=O)c2ccccc21 | 40.2 µM | > 100 µM | > 100 µM | > 100 µM | > 100 µM | > 100 µM | > 100 µM | > 100 µM | 22.1 µM | > 100 µM | 11.1 µM | > 100 µM | 9.95 µM | > 100 µM | 24.5 µM | > 100 µM | 20.1 µM | > 100 µM | 3.93 µM | > 100 µM
7 | Cc1[nH]nc(-c2ccon2)c1N=O | – | 97.7 µM | – | 32.7 µM | – | 31.6 µM | – | 35.1 µM | – | 28.6 µM | – | 64.8 µM | – | 39.6 µM | – | 38.2 µM | – | > 100 µM | – | 48.5 µM
8 | CCOC(=O)C1Nc2ccccc2[C@H]2OCC[C@@H]12 (some centres undefined) | – | > 100 µM | – | > 100 µM | – | > 100 µM | – | > 100 µM | – | > 100 µM | – | > 100 µM | – | > 100 µM | – | > 100 µM | – | > 100 µM | – | > 100 µM
9 | COC(=O)c1cc(-c2ccc(OC)c(OC)c2)[nH]c1N/N=C/c1c(Cl)cccc1Cl | 0.132 µM | 0.933 µM | 0.317 µM | 1.02 µM | 1.31 µM | 8.67 µM | 1.91 µM | 7.42 µM | 1.9 µM | > 51.3 µM | 0.673 µM | 6.98 µM | 0.434 µM | 2.3 µM | 0.86 µM | 31.8 µM | 0.379 µM | 2.21 µM | 0.502 µM | 2.51 µM
10 | COc1ccc2c(c1)C(=O)c1c-2c(OCCN(C)C)nc2ccccc12 | 3.79 µM | 15.7 µM | 4.75 µM | 17.9 µM | 2.54 µM | 11.9 µM | 4.53 µM | 18.5 µM | 2.15 µM | 10.4 µM | 2.68 µM | 12.4 µM | 1.46 µM | 5.01 µM | 2.46 µM | 8.65 µM | 7.62 µM | 21.6 µM | 1.87 µM | 4.75 µM
11 | CNNC(=NS(=O)(=O)c1cc(C#N)c(NNC)cc1S)NNC | – | > 10 µM | – | > 10 µM | – | > 10 µM | – | > 10 µM | – | > 10 µM | – | > 10 µM | – | > 10 µM | – | > 10 µM | – | > 10 µM | – | > 10 µM
12 | COc1cccc(Oc2ccccc2NC(=O)CNC(=O)c2cccc3ccccc23)c1 | 0.165 µM | 2.19 µM | 0.225 µM | 1.07 µM | 0.684 µM | > 25 µM | 1.13 µM | > 25 µM | 2.49 µM | > 25 µM | 0.617 µM | > 25 µM | 0.11 µM | 1.04 µM | 16.9 µM | > 25 µM | 0.128 µM | > 25 µM | 0.176 µM | 2.02 µM
13 | N#CNc1nc(N)c(-c2ccc(Cl)cc2)c(C(=O)Nc2nccs2)n1 | – | > 100 µM | – | > 100 µM | – | > 100 µM | – | > 100 µM | – | > 100 µM | – | > 100 µM | – | > 100 µM | – | > 100 µM | – | > 100 µM | – | > 100 µM
14 | Cc1cc(C)c(C2CNCc3cc4c(cc32)CNCC4c2c(C)cc(C)cc2C)c(C)c1 (centres undefined) | 2.2 µg/mL | 4.45 µg/mL | 2.23 µg/mL | 3.85 µg/mL | 2 µg/mL | 4.18 µg/mL | 8.38 µg/mL | 20.4 µg/mL | 13.4 µg/mL | 26.5 µg/mL | 3.46 µg/mL | 11 µg/mL | 2.75 µg/mL | 8.35 µg/mL | 3.05 µg/mL | 7.45 µg/mL | 0.526 µg/mL | 1.92 µg/mL | 3.23 µg/mL | 9.18 µg/mL
